From patent US6664231B1, “Anti-fungal peptides” (priority 1993, dated 2003)
Square brackets hold non-standard residues; d marks the D form. Peptide text beside a SMILES is read from it. Phe(4-NH2) = Nc1ccc(C[C@H](N)C(=O)O)cc1; 1Nal = N[C@@H](Cc1cccc2ccccc12)C(=O)O; d1Nal = N[C@H](Cc1cccc2ccccc12)C(=O)O; Abu = CC[C@H](N)C(=O)O

These compounds were tested on C. albicans (CA-1, Strain SLU-1) (assay: Radial diffusion assay). Conditions: HPLC-purified peptide; nanomoles required to achieve a net 30 mm^2 zone (log titration curve).
Assay type: cell-based, Candida albicans
Experimental: In the radial diffusion assay procedures, the CA-1 cultures and peptide solutions were prepared as in the broth assay procedure described above. Ten mL of molten underlayer agarose comprising 3% Sabouraud Dextrose broth, 1% agarose (Pharmacia, Piscataway, N.J.), 0.02% Tween 20, and 10 mM sodium phosphate at pH 7.4, was added to polystyrene tubes and maintained in a 56° C. water bath until the addition of yeast. Tubes were cooled to approximately 45° C., yeast were added to give a final concentration of 1×10^6 CFU/mL, and the tubes were mixed again by inverting. The contents were poured into level square petri dishes and distributed evenly. […] A series of wells were punched into the hardened agarose using a sterile 3 mm punch attached to a vacuum apparatus.
Peptides to be assayed were 2-fold serially diluted in Dulbecco's PBS (D-PBS) starting from a concentration of approximately 1 mg/mL. Five μL of each dilution were added to each well and the plates were incubated at 37° C. for 3 hours. An overlayer of 10 mL of molten agarose comprising 6% Sabouraud Dextrose broth, 1% agarose, and 10 mM sodium phosphate, pH 7.4, (at approximately 45° C.) was then added and plates were incubated overnight at 37° C. Following this overnight incubation, a dilute Coomassie solution was poured into the plates and allowed to stain for 24 hours.
Clear zones of growth inhibition around each well were measured with calipers. The actual area of growth inhibition (mm^2) was calculated by subtracting the area of the well. Table 1 below sets out the results of the radial diffusion assays for tested peptides in terms of the number of picomoles (pmol) of peptide required to establish a 30 mm^2 area of growth inhibition calculated by PROBIT analysis (e.g., calculated from regression of the linear portion of log-concentration dose-response curve, log pmol/well vs. net area of inhibition).
With CC[C@H](C)[C@H](NC(=O)[C@H](CC(C)C)NC(=O)[C@@H](N)Cc1c[nH]c2ccccc12)C(=O)N[C@@H](CCC(N)=O)C(=O)N[C@@H](CC(C)C)C(=O)N[C@@H](Cc1ccccc1)C(=O)N[C@@H](Cc1c[nH]cn1)C(=O)N[C@@H](CCCCN)C(=O)N[C@@H](CCCCN)C(N)=O [Peptide 298] the “Plate Assay (nmol), pure peptide activity” value was 1.106 nmol.
For H-SKVKWLIQLFHKK-NH2 [Peptide 284], the “Plate Assay (nmol), pure peptide activity” value was 0.373 nmol.

Same assay, conditions: crude peptide; nanomoles required to achieve a net 30 mm^2 zone (log titration curve)
CC[C@H](C)[C@H](NC(=O)[C@H](CC(C)C)NC(=O)[C@@H](N)Cc1c[nH]c2ccccc12)C(=O)N[C@@H](CCC(N)=O)C(=O)N[C@@H](CC(C)C)C(=O)N[C@@H](Cc1ccccc1)C(=O)N[C@@H](Cc1c[nH]cn1)C(=O)N[C@@H](CCCCN)C(=O)N[C@@H](CCCCN)C(N)=O [Peptide 298] was tested, and the “Plate Assay (nmol), crude peptide activity” value was 2.628 nmol.
For H-VKWLIQL-NH2 [Peptide 307], the “Plate Assay (nmol), crude peptide activity” value was >8.345 nmol.
For H-SKVKWLIQLFH-NH2 [Peptide 287], the “Plate Assay (nmol), crude peptide activity” value was >3.509 nmol.
For H-SKVKWLIQLFHKK-NH2 [Peptide 284], the “Plate Assay (nmol), crude peptide activity” value was 1.460 nmol.

Same assay, conditions: pmoles of peptide added to well to achieve a 30 mm^2 zone, PROBIT analysis; crude or purified (P′) peptide
With CC[C@H](C)[C@H](NC(=O)[C@H](CC(C)C)NC(=O)[C@@H](Cc1cccc2ccccc12)NC(=O)CNC(=O)[C@@H](NC(=O)[C@H](CCCCN)NC(=O)[C@H](CO)NC(=O)[C@@H](N)CCCCN)C(C)C)C(=O)N[C@@H](CCC(N)=O)C(=O)N[C@@H](CC(C)C)C(=O)N[C@@H](Cc1ccccc1)C(=O)N[C@@H](Cc1c[nH]cn1)C(=O)N[C@@H](CCCCN)C(=O)N[C@@H](CCCCN)C(N)=O [XMP.129] (H-KSKVG[d1Nal]LIQLFHKK-NH2) the “C. albicans pmol/30 mm^2 zone” value was 2117 pmol/30 mm^2 zone.
H-SKVKWLIQLFHK-NH2 [XMP.285] was tested, and the “C. albicans pmol/30 mm^2 zone” value was >3,024 pmol/30 mm^2 zone.
In the case of H-KSKVGWLIQFFHKK-NH2 [XMP.113], the “C. albicans pmol/30 mm^2 zone” value is reported as 947 pmol/30 mm^2 zone.
H-VKWLIQLFHK-NH2 [XMP.292] was tested, and the “C. albicans pmol/30 mm^2 zone” value was >4,463 pmol/30 mm^2 zone.
For H-LIQLFHK-NH2 [XMP.310], the “C. albicans pmol/30 mm^2 zone” value was >9,475 pmol/30 mm^2 zone.
For H-KVKWLIQ-NH2 [XMP.306], the “C. albicans pmol/30 mm^2 zone” value was >10,485 pmol/30 mm^2 zone.
In the case of H-KSKVGLLIQLFHKK-NH2 [XMP.250], the “C. albicans pmol/30 mm^2 zone” value is reported as 536 pmol/30 mm^2 zone.
For H-VKWLIQLFHKK-NH2 [XMP.289], the “C. albicans pmol/30 mm^2 zone” value was 1,542 pmol/30 mm^2 zone.
H-KSKVGWLIQLAHKK-NH2 [XMP.41] was tested, and the “C. albicans pmol/30 mm^2 zone” value was 734 pmol/30 mm^2 zone.
In the case of CC[C@H](C)[C@H](NC(=O)[C@H](CC(C)C)NC(=O)[C@H](Cc1c[nH]c2ccccc12)NC(=O)CNC(=O)[C@@H](NC(=O)[C@H](CCCCN)NC(=O)[C@H](CO)NC(=O)[C@@H](N)CCCCN)C(C)C)C(=O)N[C@@H](CCC(N)=O)C(=O)N[C@@H](CC(C)C)C(=O)N[C@@H](Cc1c[nH]c2ccccc12)C(=O)N[C@@H](Cc1cccc2ccccc12)C(=O)N[C@@H](CCCCN)C(=O)N[C@@H](CCCCN)C(N)=O [XMP.234] (H-KSKVGWLIQLW[1Nal]KK-NH2), the “C. albicans pmol/30 mm^2 zone” value is reported as “b (No detectable activity up to 5 μg/well)”.
For CC[C@H](C)[C@H](NC(=O)[C@H](CC(C)C)NC(=O)[C@H](Cc1c[nH]c2ccccc12)NC(=O)CNC(=O)[C@@H](NC(=O)[C@H](CCCCN)NC(=O)[C@H](CO)NC(=O)[C@@H](N)CCCCN)C(C)C)C(=O)N[C@@H](CCC(N)=O)C(=O)N[C@@H](CC(C)C)C(=O)N[C@@H](Cc1ccccc1)C(=O)N[C@@H](Cc1cccc2ccccc12)C(=O)N[C@@H](CCCCN)C(=O)N[C@@H](Cc1cccc2ccccc12)C(N)=O [XMP.146] (H-KSKVGWLIQLF[1Nal]K[1Nal]-NH2), the “C. albicans pmol/30 mm^2 zone” value was “b (No detectable activity up to 5 μg/well)”.
In the case of H-KVKWLIQL-NH2 [XMP.300], the “C. albicans pmol/30 mm^2 zone” value is reported as 1,957 pmol/30 mm^2 zone.
H-KSKVGWLIKLFHKK-NH2 [XMP.92] was tested, and the “C. albicans pmol/30 mm^2 zone” value was 299 pmol/30 mm^2 zone.
In the case of H-ASKVGWLIQLFHKK-NH2 [XMP.31], the “C. albicans pmol/30 mm^2 zone” value is reported as 426 pmol/30 mm^2 zone.
CC[C@H](C)[C@H](NC(=O)[C@H](CC(C)C)NC(=O)[C@H](Cc1c[nH]c2ccccc12)NC(=O)CNC(=O)[C@@H](NC(=O)[C@H](CCCCN)NC(=O)[C@H](CO)NC(=O)[C@@H](N)CCCCN)C(C)C)C(=O)N[C@@H](Cc1ccc(N)cc1)C(=O)N[C@@H](CC(C)C)C(=O)N[C@@H](Cc1ccccc1)C(=O)N[C@@H](Cc1c[nH]cn1)C(=O)N[C@@H](CCCCN)C(=O)N[C@@H](Cc1cccc2ccccc12)C(N)=O [XMP.228] (H-KSKVGWLI[Phe(4-NH2)]LFHK[1Nal]-NH2) was tested, and the “C. albicans pmol/30 mm^2 zone” value was “b (No detectable activity up to 5 μg/well)”.
With CC[C@H](C)[C@H](NC(=O)[C@H](CC(C)C)NC(=O)[C@H](Cc1c[nH]c2ccccc12)NC(=O)CNC(=O)[C@@H](NC(=O)[C@H](CCCCN)NC(=O)[C@H](CO)NC(=O)[C@@H](N)CCCCN)C(C)C)C(=O)N[C@@H](Cc1ccc(N)cc1)C(=O)N[C@@H](Cc1cccc2ccccc12)C(=O)N[C@@H](Cc1ccccc1)C(=O)N[C@@H](Cc1c[nH]cn1)C(=O)N[C@@H](CCCCN)C(=O)N[C@@H](CCCCN)C(N)=O [XMP.235] (H-KSKVGWLI[Phe(4-NH2)][1Nal]FHKK-NH2) the “C. albicans pmol/30 mm^2 zone” value was “b (No detectable activity up to 5 μg/well)”.
H-KSKVAWLIQLFHKK-NH2 [XMP.35] was tested, and the “C. albicans pmol/30 mm^2 zone” value was 442 pmol/30 mm^2 zone.
For “XMP.384: K - K - L - L - L - L - Q - K - K (SEQ ID NO:215) (KKLLLLQKK)”, the “C. albicans pmol/30 mm^2 zone” value was 2,804 pmol/30 mm^2 zone.
For H-KSKVLWLIQLFHKK-NH2 [XMP.85], the “C. albicans pmol/30 mm^2 zone” value was >1881 pmol/30 mm^2 zone.
For CC[C@H](C)[C@H](NC(=O)[C@H](CC(C)C)NC(=O)[C@H](Cc1c[nH]c2ccccc12)NC(=O)CNC(=O)[C@@H](NC(=O)[C@H](CCCCN)NC(=O)[C@H](CO)NC(=O)[C@@H](N)CCCCN)C(C)C)C(=O)N[C@@H](CCC(N)=O)C(=O)N[C@@H](CC(C)C)C(=O)N[C@@H](Cc1ccccc1)C(=O)N[C@@H](Cc1cccc2ccccc12)C(=O)N[C@@H](CCCCN)C(=O)N[C@@H](CCCCN)C(N)=O [XMP.110] (H-KSKVGWLIQLF[1Nal]KK-NH2), the “C. albicans pmol/30 mm^2 zone” value was >2922 pmol/30 mm^2 zone.
With H-KVKWLIQLF-NH2 [XMP.295] the “C. albicans pmol/30 mm^2 zone” value was >1,977 pmol/30 mm^2 zone.
“H-KSKVGWLILLFHKKKSKVGWLILLFHKK-NH2 [XMP.272]” was tested, and the “C. albicans pmol/30 mm^2 zone” value was >2,599 pmol/30 mm^2 zone.
H-KKWLIQL-NH2 [XMP.325] was tested, and the “C. albicans pmol/30 mm^2 zone” value was 4,135 pmol/30 mm^2 zone.
In the case of H-KSKVGWLIYLFHKK-NH2 [XMP.125], the “C. albicans pmol/30 mm^2 zone” value is reported as >3150 pmol/30 mm^2 zone.
For CC[C@H](NC(=O)CNC(=O)[C@@H](NC(=O)[C@H](CCCCN)NC(=O)[C@H](CO)NC(=O)[C@@H](N)CCCCN)C(C)C)C(=O)N[C@@H](CC(C)C)C(=O)N[C@H](C(=O)N[C@@H](CCC(N)=O)C(=O)N[C@@H](CC(C)C)C(=O)N[C@@H](Cc1ccccc1)C(=O)N[C@@H](Cc1c[nH]cn1)C(=O)N[C@@H](CCCCN)C(=O)N[C@@H](CCCCN)C(N)=O)[C@@H](C)CC [XMP.255] (H-KSKVG[Abu]LIQLFHKK-NH2), the “C. albicans pmol/30 mm^2 zone” value was 392 pmol/30 mm^2 zone.
For CC[C@H](C)[C@H](NC(=O)[C@H](CC(C)C)NC(=O)[C@H](Cc1c[nH]c2ccccc12)NC(=O)CNC(=O)[C@@H](NC(=O)[C@H](CCCCN)NC(=O)[C@H](CO)NC(=O)[C@@H](N)CCCCN)C(C)C)C(=O)N[C@@H](CCC(N)=O)C(=O)N[C@@H](CC(C)C)C(=O)N[C@@H](Cc1ccccc1)C(=O)N[C@@H](Cc1c[nH]cn1)C(=O)N[C@@H](CCCCN)C(=O)N[C@@H](Cc1cccc2ccccc12)C(N)=O [XMP.111] (H-KSKVGWLIQLFHK[1Nal]-NH2), the “C. albicans pmol/30 mm^2 zone” value was >2809 pmol/30 mm^2 zone.
H-KSKVGWLIDLFHKK-NH2 [XMP.264] was tested, and the “C. albicans pmol/30 mm^2 zone” value was 879 pmol/30 mm^2 zone.
In the case of H-SKVKWLIQLFH-NH2 [XMP.287], the “C. albicans pmol/30 mm^2 zone” value is reported as >3,509 pmol/30 mm^2 zone.

Same assay, conditions: pmoles of peptide added to well to achieve a 30 mm^2 zone, PROBIT analysis; crude or purified (P′) peptide; listed as XMP.289P′
In the case of H-VKWLIQLFHKK-NH2 [XMP.289], the “C. albicans pmol/30 mm^2 zone” value is reported as 658 pmol/30 mm^2 zone.

Same assay, conditions: pmoles of peptide added to well to achieve a 30 mm^2 zone, PROBIT analysis; crude or purified (P′) peptide; listed as XMP.295P′
H-KVKWLIQLF-NH2 [XMP.295] was tested, and the “C. albicans pmol/30 mm^2 zone” value was >2,612 pmol/30 mm^2 zone.

Same assay, conditions: pmoles of peptide added to well to achieve a 30 mm^2 zone, PROBIT analysis; crude or purified (P′) peptide; listed as XMP.300P′
For H-KVKWLIQL-NH2 [XMP.300], the “C. albicans pmol/30 mm^2 zone” value was 993 pmol/30 mm^2 zone.
